US9884048B2, “ERK inhibitors” (Merck Sharp & Dohme Corp., priority 2014, dated 2018)

Molecular target: phosphorylated active hERK2 enzyme (Homo sapiens (Human), UniProt P28482)
Details: read-out: ERK2 IC50; IMAP-FP assay; 0.5 nM hERK2, 30 μM ATP; 10 point titration, 3 μM starting concentration

phosphorylated active hERK2 enzyme, sequence (P28482 whole entry): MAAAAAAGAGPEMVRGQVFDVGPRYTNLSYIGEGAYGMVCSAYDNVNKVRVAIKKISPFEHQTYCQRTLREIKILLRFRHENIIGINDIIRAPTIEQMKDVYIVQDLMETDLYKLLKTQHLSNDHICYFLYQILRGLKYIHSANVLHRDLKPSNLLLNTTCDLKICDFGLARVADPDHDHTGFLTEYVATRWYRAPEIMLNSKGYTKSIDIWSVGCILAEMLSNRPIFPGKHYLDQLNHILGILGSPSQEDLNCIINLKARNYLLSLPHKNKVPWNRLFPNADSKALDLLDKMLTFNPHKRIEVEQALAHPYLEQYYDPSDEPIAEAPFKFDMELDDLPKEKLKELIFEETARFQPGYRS

| Structure (SMILES) | IC50 [nM] |
| --- | --- |
| Cc1cc(-n2ncc3cc(NC(=O)N[C@H]4CN(C)C[C@@H]4c4ccc(C5CC5)s4)ncc32)ccn1 [Example 164, 1-[(3R,4S)-4-(5-cyclopropylthiophen-2-yl)-1-methylpyrrolidin-3-yl]-3-[1-(2-methylpyridin-4-yl)-1H-pyrazolo[3,4-c]pyridin-5-yl]urea] | 1.13 |
| Cc1cc(-n2ncc3cc(NC(=O)N[C@H]4CN(C)C[C@@H]4c4cnn(C)c4)ncc32)ccn1 [Example 165, 1-[(3R,4S)-1-methyl-4-(1-methyl-1H-pyrazol-4-yl)pyrrolidin-3-yl]-3-[1-(2-methylpyridin-4-yl)-1H-pyrazolo[3,4-c]pyridin-5-yl)urea] | 831 |
| Cc1cc(-n2ncc3cc(NC(=O)NC4CCC(c5ccc(F)cc5)C4)ncc32)ccn1 (stereo not drawn) [Example 170, 1-[3-(4-fluorophenyl)cyclopentyl]-3-[1-(2-methylpyridin-4-yl)-1H-pyrazolo[3,4-c]pyridin-5-yl]urea] | 196 |
| Cc1cc(-n2ncc3cc(NC(=O)NC4CCCC(c5ccccc5)C4)ncc32)ccn1 (stereo not drawn) [Example 171, 1-[1-(2-methylpyridin-4-yl)-1H-pyrazolo[3,4-c]pyridin-5-yl]-3-(3-phenyl-cyclohexyl)urea] | 2.85 |
| Cc1cc(-n2ncc3cc(NC(=O)NC4CCOc5ccccc54)ncc32)ccn1 (stereo not drawn) [Example 172, 1-(3,4-dihydro-2H-chromen-4-yl)-3-[1-(2-methylpyridin-4-yl)-1H-pyrazolo[3,4-c]pyridin-5-yl)urea] | 40.7 |
| Cc1cc(-n2ncc3cc(NC(=O)NC4CCCC(c5ccc(F)cc5)C4)ncc32)ccn1 (stereo not drawn) [Example 173, 1-[3-(4-fluorophenyl)cyclohexyl]-3-[1-(2-methylpyridin-4-yl)-1H-pyrazolo[3,4-c]pyridin-5-yl]urea] | 11.6 |
| Cc1cc(-n2ncc3cc(NC(=O)NC4COc5ccccc54)ncc32)ccn1 (stereo not drawn) [Example 177, 1-(2,3-dihydro-1-benzofuran-3-yl)-3-[1-(2-methylpyridin-4-yl)-1H-pyrazolo[3,4-c]pyridin-5-yl]urea] | 215 |
| Cc1cc(-n2ncc3cc(NC(=O)NC4CCC(c5ccccc5)C4)ncc32)ccn1 (stereo not drawn) [Example 178, 1-[1-(2-methylpyridin-4-yl)-1H-pyrazolo[3,4-c]pyridin-5-yl]-3-(3-phenylcyclopentyl)urea] | 37.1 |
| Cc1cc(-n2ncc3cc(NC(=O)N[C@H]4CCC[C@@H]4Oc4cccnc4)ncc32)ccn1 [Example 179, 1-[1-(2-methylpyridin-4-yl)-1H-pyrazolo[3,4-c]pyridin-5-yl]-3-[(1S,2S)-2-(pyridin-3-yloxy)cyclopentyl]urea] | 511 |
| Cc1cc(-n2ncc3cc(NC(=O)N[C@H]4CN(C)C[C@@H]4c4ccccc4C)ncc32)ccn1 [Example 180, 1-[(3R,4S)-1-methyl-4-(2-methylphenyl)pyrrolidin-3-yl]-3-[1-(2-methylpyridin-4-yl)-1H-pyrazolo[3,4-c]pyridin-5-yl]urea] | 0.28 |
| Cc1cc(-n2ncc3cc(NC(=O)N[C@@H]4CN(C)C[C@H]4c4ccccc4)ncc32)ccn1 [Example 181, 1-((3S,4R)1-methyl-4-phenyl-pyrrolidin-3-yl)-3-[1-(2-methyl-pyridin-4-yl)-1H-pyrazolo[3,4-c]pyridin-5-yl]urea] | 0.983 |
| Cc1cc(-n2ncc3cc(NC(=O)N[C@H]4CN(C)C[C@@H]4c4ccccc4)ncc32)ccn1 [Example 182, 1-((3R,4S)1-methyl-4-phenyl-pyrrolidin-3-yl)-3-[1-(2-methyl-pyridin-4-yl)-1H-pyrazolo[3,4-c]pyridin-5-yl]urea] | 59.7 |
| Cc1cc(-n2ncc3cc(NC(=O)N[C@H]4[C@H](c5ccccc5)CN(C)C45COC5)ncc32)ccn1 [Example 183, 1-[(7R,8S)-5-methyl-7-phenyl-2-oxa-5-azaspiro[3.4]oct-8-yl]-3-[1-(2-methylpyridin-4-yl)-1H-pyrazolo[3,4-c]pyridin-5-yl]urea] | 12.2 |
| Cc1cc(-n2ncc3cc(NC(=O)N[C@@H]4[C@@H](c5ccccc5)CN(C)C45COC5)ncc32)ccn1 [Example 184, 1-[(7S,8R)-5-methyl-7-phenyl-2-oxa-5-azaspiro[3.4]oct-8-yl]-3-[1-(2-methylpyridin-4-yl)-1H-pyrazolo[3,4-c]pyridin-5-yl]urea] | 873 |
| Cc1cc(-n2ncc3cc(NC(=O)N[C@H]4CN(C)C[C@@H]4CCc4ccccc4)ncc32)ccn1 [Example 185, 1-[(3R,4S)-1-methyl-4-(2-phenylethyl)pyrrolidin-3-yl]-3-[1-(2-methylpyridin-4-yl)-1H-pyrazolo[3,4-c]pyridin-5-yl]urea] | 0.182 |
| Cc1cc(-n2ncc3cc(NC(=O)N[C@@H](CN)c4ccccc4)ncc32)ccn1 [Example 186, 1-[(1R)-2-amino-1-phenylethyl]-3-[1-(2-methylpyridin-4-yl)-1H-pyrazolo[3,4-c]pyridin-5-yl]urea] | 42.5 |
| Cc1cc(-n2ncc3cc(NC(=O)N[C@H](CN)c4ccccc4)ncc32)ccn1 [Example 187, 1-[(1S)-2-amino-1-phenylethyl]-3-[1-(2-methylpyridin-4-yl)-1H-pyrazolo[3,4-c]pyridin-5-yl]urea] | 0.685 |

| Structure (SMILES) | IC50 [nM] |
| --- | --- |
| Cc1cc(-n2ncc3cc(NC(=O)N[C@@H]4CN(C)C[C@H]4c4ccc(C)s4)ncc32)ccn1 [Example 188, 1-[(3S,4R)-1-methyl-4-(5-methylthiophen-2-yl)pyrrolidin-3-yl]-3-[1-(2-methylpyridin-4-yl)-1H-pyrazolo[3,4-c]pyridin-5-yl]urea] | 70.1 |
| Cc1cc(-n2ncc3cc(NC(=O)N[C@H]4CN(C)C[C@@H]4c4ccc(C)s4)ncc32)ccn1 [Example 189, 1-[(3R,4S)-1-methyl-4-(5-methylthiophen-2-yl)pyrrolidin-3-yl]-3-[1-(2-methylpyridin-4-yl)-1H-pyrazolo[3,4-c]pyridin-5-yl]urea] | 0.254 |
| Cc1cc(-n2ncc3cc(NC(=O)N[C@@H]4CN(C)C[C@H]4c4ccccc4C)ncc32)ccn1 [Example 190, 1-[(3S,4R)-1-methyl-4-(2-methylphenyl)pyrrolidin-3-yl]-3-[1-(2-methylpyridin-4-yl)-1H-pyrazolo[3,4-c]pyridin-5-yl]urea] | 11.7 |
| Cc1cc(-n2ncc3cc(NC(=O)N[C@H]4CN(C)C[C@@H]4c4ccccc4C(F)(F)F)ncc32)ccn1 [Example 191, 1-[1-(2-methylpyridin-4-yl)-1H-pyrazolo[3,4-c]pyridin-5-yl]-3-{(3R,4S)-1-methyl-4-[2-(trifluoromethyl)-phenyl]pyrrolidin-3-yl}urea] | 0.509 |
| Cc1cc(-n2ncc3cc(NC(=O)N[C@@H]4CN(C)C[C@H]4c4ccccc4C(F)(F)F)ncc32)ccn1 [Example 192, 1-[1-(2-methylpyridin-4-yl)-1H-pyrazolo[3,4-c]pyridin-5-yl]-3-{(3S,4R)-1-methyl-4-[2-(trifluoromethyl)-phenyl]pyrrolidin-3-yl}urea] | 235 |
| CO[C@H]1CN(C)C[C@@H]1NC(=O)Nc1cc2cnn(-c3ccnc(C)c3)c2cn1 [Example 193, 1-[(3S,4S)-4-methoxy-1-methylpyrrolidin-3-yl]-3-[1-(2-methylpyridin-4-yl)-1H-pyrazolo[3,4-c]pyridin-5-yl]urea] | 2530 |
| CO[C@@H]1CN(C)C[C@H]1NC(=O)Nc1cc2cnn(-c3ccnc(C)c3)c2cn1 [Example 194, 1-[(3R,4R)-4-methoxy-1-methylpyrrolidin-3-yl]-3-[1-(2-methylpyridin-4-yl)-1H-pyrazolo[3,4-c]pyridin-5-yl]urea] | 47.7 |
| Cc1cc(-n2ncc3cc(NC(=O)N[C@H]4CN(C5CCC5)C[C@@H]4c4ccccc4)ncc32)ccn1 [Example 195, 1-[(3R,4S)-1-cyclobutyl-4-phenylpyrrolidin-3-yl]-3-[1-(2-methylpyridin-4-yl)-1H-pyrazolo[3,4-c]pyridin-5-yl]urea] | 3.6 |
| Cc1cc(-n2ncc3cc(NC(=O)N[C@@H]4CN(C5CCC5)C[C@H]4c4ccccc4)ncc32)ccn1 [Example 196, 1-[(3S,4R)-1-cyclobutyl-4-phenylpyrrolidin-3-yl]-3-[1-(2-methylpyridin-4-yl)-1H-pyrazolo[3,4-c]pyridin-5-yl]urea] | 354 |
| Cc1cc(-n2ncc3cc(NC(=O)N[C@@H]4CN(C(C)C)C[C@H]4c4ccccc4)ncc32)ccn1 [Example 197, 1-[(3S,4R)-1-(1-methyl-ethyl)-4-phenylpyrrolidin-3-yl]-3-[1-(2-methylpyridin-4-yl)-1H-pyrazolo[3,4-c]-pyridin-5-yl]urea] | 60.8 |
| Cc1cc(-n2ncc3cc(NC(=O)N[C@H]4CN(C(C)C)C[C@@H]4c4ccccc4)ncc32)ccn1 [Example 198, 1-[(3R,4S)-1-(1-methylethyl)-4-phenylpyrrolidin-3-yl]-3-[1-(2-methylpyridin-4-yl)-1H-pyrazolo[3,4-c]pyridin-5-yl]urea] | 2.64 |
| CCN1C[C@H](NC(=O)Nc2cc3cnn(-c4ccnc(C)c4)c3cn2)[C@@H](c2ccccc2)C1 [Example 199, 1-[(3R,4S)-1-ethyl-4-phenylpyrrolidin-3-yl]-3-[1-(2-methylpyridin-4-yl)-1H-pyrazolo[3,4-c]pyridin-5-yl]urea] | 0.718 |
| CCN1C[C@@H](NC(=O)Nc2cc3cnn(-c4ccnc(C)c4)c3cn2)[C@H](c2ccccc2)C1 [Example 200, 1-[(3S,4R)-1-ethyl-4-phenylpyrrolidin-3-yl]-3-[1-(2-methylpyridin-4-yl)-1H-pyrazolo[3,4-c]pyridin-5-yl]urea] | 20.6 |
| Cc1cc(-n2ncc3cc(NC(=O)N[C@@H]4CN(C)C5(COC5)[C@H]4c4ccccc4)ncc32)ccn1 [Example 201, 1-[(7S,8S)-5-methyl-8-phenyl-2-oxa-5-azaspiro[3.4]oct-7-yl]-3-[1-(2-methylpyridin-4-yl)-1H-pyrazolo[3,4-c]pyridin-5-yl]urea] | 0.689 |
| Cc1cc(-n2ncc3cc(NC(=O)N[C@H]4CN(C)C5(COC5)[C@@H]4c4ccccc4)ncc32)ccn1 [Example 202, 1-[(7R,8R)-5-methyl-8-phenyl-2-oxa-5-azaspiro[3.4]oct-7-yl]-3-[1-(2-methylpyridin-4-yl)-1H-pyrazolo[3,4-c]pyridin-5-yl]urea] | 300 |
| Cc1cc(-n2ncc3cc(NC(=O)N[C@@H](C)c4ccccn4)ncc32)ccn1 [Example 203, 1-[1-(2-methylpyridin-4-yl)-1H-pyrazolo[3,4-c]pyridin-5-yl]-3-[(1S)-1-pyridin-2-ylethyl]urea] | 1180 |
